Data as given in patent US9428507B2, “Compounds for the treatment of malaria” (The Broad Institute, Inc., priority 2013, dated 2016).
pIC50: −log10 of the molar value. Read-outs that look alike come from different tables or passages of the source.

Tests used:
P. falciparum Dd2 = assay: In vitro P. falciparum blood-stage assay, strain Dd2; type: cell-based; conditions: Plasmodium falciparum
Procedure: (§1) Strains of Plasmodium falciparum (Dd2, 3D7, D6, K1, NF54, V1/3, HB3, 7G8, FCB, TM90C2B) were obtained from Malaria Research and Reference Reagent Resource Center (MR4). P. falciparum isolates were maintained with O-positive human blood in an atmosphere of 93% N2, 4% CO2, 3% O2 at 37° C. in complete culturing medium (10.4 g/L RPMI 1640, 5.94 g/L HEPES, 5 g/L albumax II, 50 mg/L hypoxanthine, 2.1 g/L sodium bicarbonate, 10% human serum and 43 mg/L gentamicin). Parasites were cultured in medium until the parasitemia reached 3-8%. Parasitemia was determined by checking at least 500 red blood cells from a Giemsa-stained blood smear. For the compound screening, a parasite suspension at 2.0% parasitemia and 2.0% hematocrit was created with medium. 25 μl of medium was dispensed into 384-well, black, clear-bottom plates. 100 nl of compounds in DMSO was transferred into the assay plates along with control compound (mefloquine). Next, 25 μl of the parasite suspension in medium was dispensed into the assay plates such that the final parasitemia was 1% and the final hematocrit was 1%. The assay plates were incubated for 72 hours at 37° C. […] The assay plates were read with 505 dichroic mirrors with 485-nm excitation and 530-nm emission settings.

P. falciparum 3D7 = assay: In vitro P. falciparum blood-stage assay, strain 3D7; type: cell-based; conditions: Plasmodium falciparum
Procedure: as §1

P. falciparum FCB = assay: In vitro P. falciparum blood-stage assay, strain FCB; type: cell-based; conditions: Plasmodium falciparum
Procedure: as §1

[1] = tested on: P. falciparum asexual erythocytic stage; assay: Erythrocytic stage, asexual (P. falciparum); type: cell-based; conditions: Plasmodium falciparum
Procedure: as §1

[2] = tested on: P. falciparum 3D7 gametocytes; assay: P. falciparum gametocyte viability assay; type: cell-based; conditions: Plasmodium falciparum, 72 hours, Cell-titer glo, read-out: IC50 erythocytic stage (P. falciparum) sexual (IV & V)
Procedure: P. falciparum 3D7 stage Ill-V gametocytes were isolated by discontinuous Percoll gradient centrifugation of parasite cultures treated with 50 mM N-acetyl-D-glucosamine for 3 days to kill asexual parasites. Gametocytes (1.0×10^5) were seeded in 96-well plates and incubated with compounds for 72 hours. In vitro anti-gametocyte activity was measured using Cell-titer glo (Promega).

P. cynomolgi = assay: In vitro P. cynomolgi liver stage assay in primary rhesus monkey hepatocytes; type: cell-based; conditions: Plasmodium cynomolgi, Hepatocyte, in Macaca mulatta
Procedure: An in vitro P. cynomolgi liver stage assay was performed as described in Zeeman et al. Antimicrobial Agents and Chemotherapy, 2014, 58:1586-1595. 96-well plates are seeded with freshly isolated or thawed cryopreserved stocks of primary rhesus monkey hepatocytes one or two days before infection with 5×10^4 freshly dissected P. cynomolgisporozoites per well. After 2-3 h of sporozoite invasion into the hepatocytes, culture medium is exchanged for culture medium containing appropriate compound dilutions. Initially, compounds are tested in duplicate in 3 dilutions: 0.1, 1 and 10 μM. Plates are incubated for 6 days with medium exchange (including compound dilutions) every other day. Plates are fixed in methanol and parasites are stained with rabbit anti-PcyHSP70 antiserum in the presence of DAPI to stain the nuclei. Plates are automatically counted in a high-content imager (Operetta®) and small parasites (hypnozoites, s.f.) and large schizonts (I.f.) are recorded, as well as number of hepatocytes as a measure for cytotoxic effects of the compounds. Controls include uninfected hepatocytes, sporozoite infected wells without compound and infected wells with primaquine and atovaquone. When activity is recorded and reported, a more extensive dilution curve can be evaluated: a 7-point 3-fold dilution series from days 0-6.

[3] = tested on: P. berghei (ANKA GFP-luc) sporozoites; assay: In vivo P. berghei liver-stage assay; set-up: species or system CD-1 mice; conditions: orally at 50 mg/kg two hours after sporozoite inoculation
Procedure: CD-1 mice (n=4 per experimental group; female; 6-7-week-old; 20-24 g) were inoculated intravenously with 1×10^5 freshly isolated P. berghei(ANKA GFP-luc) sporozoites intravenously, and compounds were administered orally at 50 mg/kg two hours later. Bioluminescence signals from the transgenic parasites were monitored by the In vivo Imaging System (IVIS 100, Xenogen; Caliper Life Sciences). Animals with parasitemia exceeding 20% were euthanized.

## COc1ccc2c3c([nH]c2c1)[C@H](CO)N(C(C)=O)CC31CCN(C(=O)Nc2ccccc2F)CC1 [Compound 15, (R)-2′-acetyl-N-(2-fluorophenyl)-1′-(hydroxymethyl)-7′-methoxy-1′,2′,3′,9′-tetrahydrospiro [piperidine-4,4′-pyrido[3,4-b]indole]-1-carboxamide]
P. falciparum Dd2
  IC50: 73 nM
P. falciparum 3D7
  IC50: 65 nM
P. falciparum FCB
  IC50: 130 nM
[1]
  pIC50: 7.19
[2]
  pIC50: 6.19
P. cynomolgi; large schizonts (l.f.), read-out: IC50 exo-erythrocytic stage P. cynomolgi (l.f)
  pIC50: 6.08
P. cynomolgi; small parasites (hypnozoites, s.f.), read-out: IC50 exo-erythrocytic stage P. cynomolgi (s.f)
  pIC50: 6.46
[3]
  Parasitemia of treated animals (untreated controls: systemic parasitemia by day four): remained parasite free
[3]; bioluminescence
  Inhibition of the liver stage of P. berghei in vivo (FIG. 1): inhibit the liver stage
